From the supplement of paper PMC10307832

Tests used:
Test in all cases: relative viability (nuclei count vs DMSO), 5 days (fraction); higher = more cells survive
[1] = compound: C1/C(=C\C2=CC=CS2)/C(=O)/C(=C/C3=CC=CS3)/C1 + N=C(N)NC(=N)NCCc1ccccc1 [Phenformin] (partner 250 µM)
Summary of the method: (§1)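 Lung cancer cell lines, seeded in 1536-well plates, were treated the following day by pin tool with a single drug or with five library-drug doses (not always all listed) in √10 steps on top of a fixed anchor-drug dose. Cells were fixed and nuclei stained in one step after 5 days, and nuclei were counted. Relative viability is the nuclei count for treated wells divided by that for vehicle wells, reported as medians of duplicate plates.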

[2] = compound: C1=CC(=CC=C1C2=CC(=C(S2)NC(=O)N)C(=O)N)F [TPCA-1] + CC(=O)Nc1cccc(-n2c(=O)n(C3CC3)c(=O)c3c(Nc4ccc(I)cc4F)n(C)c(=O)c(C)c32)c1 [Trametinib] (partner 0.02 µM)
Summary of the method: as §1

[3] = compound: C1/C(=C\C2=CC=CS2)/C(=O)/C(=C/C3=CC=CS3)/C1 + CC1(C)CCC(c2ccc(Cl)cc2)=C(CN2CCN(c3ccc(C(=O)NS(=O)(=O)c4ccc(N[C@H](CCN5CCOCC5)CSc5ccccc5)c(S(=O)(=O)C(F)(F)F)c4)cc3)CC2)C1 [Navitoclax] (partner 0.5 µM)
Summary of the method: as §1

[4] = compound: C1=CC(=CC=C1C2=CC(=C(S2)NC(=O)N)C(=O)N)F [TPCA-1] + CCNC(=O)c1noc(-c2cc(C(C)C)c(O)cc2O)c1-c1ccc(CN2CCOCC2)cc1 [Luminespib] (partner 0.01 µM)
Summary of the method: as §1

Cell Line | relative viability ([1]; first compound 0.2 µM) | relative viability ([1]; first compound 0.6325 µM) | relative viability ([1]; first compound 2 µM) | relative viability ([1]; first compound 6.325 µM) | relative viability ([1]; first compound 20 µM) | relative viability ([2]; first compound 0.04 µM) | relative viability ([2]; first compound 0.1265 µM) | relative viability ([2]; first compound 0.4 µM) | relative viability ([2]; first compound 1.265 µM) | relative viability ([2]; first compound 4 µM) | relative viability ([3]; first compound 0.2 µM) | relative viability ([3]; first compound 0.6325 µM) | relative viability ([3]; first compound 2 µM) | relative viability ([3]; first compound 6.325 µM) | relative viability ([3]; first compound 20 µM) | relative viability ([4]; first compound 0.04 µM) | relative viability ([4]; first compound 0.1265 µM) | relative viability ([4]; first compound 0.4 µM) | relative viability ([4]; first compound 1.265 µM) | relative viability ([4]; first compound 4 µM)
LXF-289 | 0.553 | 0.536 | 0.554 | 0.459 | 0.513 | 0.7 | 0.629 | 0.635 | 0.653 | 0.565 | 0.939 | 0.996 | 0.929 | 0.862 | 0.908 | 0.787 | 0.649 | 0.748 | 0.703 | 0.596
HCC-827 | 0.426 | 0.414 | 0.433 | 0.411 | 0.388 | 0.545 | 0.545 | 0.527 | 0.596 | 0.421 | 1.1 | 0.966 | 1.01 | 0.959 | 1.02 | 0.675 | 0.496 | 0.531 | 0.598 | 0.201
EMC-BAC-2 | 0.549 | 0.513 | 0.558 | 0.521 | 0.521 | 0.869 | 0.811 | 0.979 | 0.742 | 0.906 | 1.21 | 1.11 | 1.13 | 1.05 | 1.1 | 1.24 | 1.13 | 1.16 | 1.35 | 1.13
NCI-H520 | 0.744 | 0.605 | 0.766 | 0.535 | 0.443 | 0.773 | 0.69 | 0.75 | 0.674 | 0.278 | 0.98 | 1.06 | 1.15 | 0.856 | 1 | 0.197 | 0.215 | 0.203 | 0.246 | 0.213
NCI-H1755 | 0.636 | 0.642 | 0.63 | 0.505 | 0.61 | 0.846 | 0.716 | 0.72 | 0.714 | 0.591 | 1.07 | 1.03 | 0.963 | 0.849 | 0.944 | 0.596 | 0.408 | 0.357 | 0.35 | 0.418
NCI-H1993 | 0.514 | 0.518 | 0.494 | 0.42 | 0.517 | 0.545 | 0.563 | 0.563 | 0.423 | 0.425 | 1.04 | 0.877 | 0.971 | 0.693 | 0.818 | 0.694 | 0.688 | 0.783 | 1.29 | 0.669
NCI-H23 | 0.775 | 0.863 | 0.828 | 0.78 | 0.699 | 0.535 | 0.377 | 0.362 | 0.382 | 0.358 | 0.902 | 0.804 | 0.944 | 0.602 | 0.729 | 0.199 | 0.208 | 0.219 | 0.196 | 0.193
NCI-H1437 | 0.294 | 0.281 | 0.402 | 0.26 | 0.318 | 0.581 | 0.493 | 0.521 | 0.511 | 0.453 | 1.15 | 1.09 | 1.07 | 1.03 | 0.992 | 1.04 | 1.14 | 1.03 | 1.12 | 1.2
SK-MES-1 | 0.722 | 0.742 | 0.605 | 0.644 | 0.546 | 0.536 | 0.524 | 0.507 | 0.429 | 0.39 | 1.28 | 1.3 | 1.17 | 1 | 1.14 | 0.876 | 0.763 | 0.677 | 0.33 | 0.365
NCI-H2405 | 0.404 | 0.386 | 0.441 | 0.413 | 0.402 | 0.662 | 0.606 | 0.722 | 0.469 | 0.638 | 1.23 | 0.892 | 1.15 | 0.766 | 1.08 | 0.792 | 0.627 | 0.709 | 0.622 | 0.618
NCI-H2023 | 0.414 | 0.488 | 0.439 | 0.396 | 0.383 | 0.588 | 0.352 | 0.556 | 0.487 | 0.426 | 1.08 | 0.991 | 1.03 | 0.971 | 0.94 | 0.993 | 0.91 | 0.779 | 0.472 | 0.373
NCI-H838 | 0.689 | 0.541 | 0.687 | 0.65 | 0.519 | 0.599 | 0.457 | 0.533 | 0.336 | 0.406 | 1.23 | 1.17 | 1.14 | 0.86 | 1.05 | 0.349 | 0.398 | 0.235 | 0.268 | 0.223
NCI-H1734 | 0.415 | 0.403 | 0.443 | 0.363 | 0.412 | 0.754 | 0.598 | 0.7 | 0.644 | 0.628 | 0.837 | 0.908 | 0.914 | 0.812 | 0.866 | 0.192 | 0.201 | 0.221 | 0.19 | 0.162
NCI-H1650 | 0.495 | 0.434 | 0.426 | 0.391 | 0.467 | 0.662 | 0.545 | 0.602 | 0.565 | 0.655 | 1.11 | 1.15 | 1.21 | 1.1 | 1.24 | 0.225 |  | 0.188 | 0.185 | 0.197
NCI-H596 | 0.711 | 0.799 | 0.846 | 0.78 | 0.857 | 0.801 | 0.78 | 0.74 | 0.884 | 0.658 | 0.987 | 0.975 | 0.919 | 0.956 | 0.933 | 0.988 | 1.08 | 0.897 | 1.11 | 1.08
NCI-H1944 | 0.232 | 0.207 | 0.2 | 0.18 | 0.182 | 0.423 | 0.373 | 0.426 | 0.355 | 0.294 | 1.14 | 0.966 | 1.08 | 0.899 | 0.992 | 0.872 | 0.663 | 0.71 | 0.626 | 0.513
